One assay has as its system HT-29. Briefly: Cytotoxicity against human HT-29 cells after 6 days by MTT assay. Format: functional, cell-based. To be noted: HT-29, 144 h. On the technique in general: Tetrazolium assays rely on reduction of a dye to a coloured formazan, in cell work by metabolically active cells.
Another assay relates to HepG2. In words: Cytotoxicity against human HepG2 cells after 6 days by MTT assay. The settings on record: HepG2, 144 h. Format: functional, cell-based.
The subject of the next assay is MCF7. Briefly: Cytotoxicity against human MCF7 cells after 6 days by MTT assay. To be noted: MCF7, 144 h. Format: functional, cell-based.
Assay [1] in a line: Cytotoxicity against human Hep3B cells after 6 days by MTT assay. Format: functional, cell-based, Hep 3B2. To be noted: 144 h.

≈ marks a conversion by molar mass, not a printed value.

One may read the IC50 as the concentration that inhibits the measured activity by half. Read a low IC50 as greater potency in that assay.

Consider `COc1cc2c(cc1OC)C13C[C@@H](OC)C=C[C@@]14O[C@H]4C(=O)N3CCC2` (some centres undefined), for which the IC50 was 24.4 µg/mL (≈ 68.3 µM) with HT-29, 52 µg/mL (≈ 145 µM) in the assay with HepG2, 42 µg/mL (≈ 118 µM) in the assay on MCF7 and 52 µg/mL (≈ 145 µM) in assay [1].

Values taken from ChEMBL document CHEMBL1151256, “New alkaloids and a tetraflavonoid from Cephalotaxus wilsoniana” (J Nat Prod, 2004).
